# Assays:
# THP-1 cells = assay: Cell viability assay (resazurin/Alamar blue) in THP-1 cells; type: cell-based, human; conditions: 500 µM ATP
# Experimental: (§1) HEK-hP2X7 or THP-1 cells were seeded at 5 × 10^3 cells per well in a volume of 100 μl for 24 hours in 96-well plates (Nunclon Edge plates, catalog number 167425; Thermo Scientific). Cells were plated in DMEM:F12 medium or RPMI 1640 medium containing 1% FBS and penicillin/streptomycin for 24 hours in a humidified incubator at 37°C with a constant supply of 5% CO2. Edge wells of the plates were filled with autoclaved distilled water to prevent evaporation of media from wells containing cells. The compounds and ATP were made at 2× final concentration in 1% FBS DMEM:F12 and 100 μl added to the cells for 24 hours. After incubation, resazurin sodium salt (CAS 62758-13-8; Sigma Aldrich) at 0.1 mg/ml in sterile PBS was added to the plate (20 into 200 µl culture medium per well). Cells were incubated for a further 2 hours in a humidified incubator at 37°C with a supply of 5% CO2. A Flexstation 3 microplate reader was used to acquire data. Endpoint fluorescence data were measured using 570 nm excitation wavelength, 600 nm emission wavelength (cutoff at 590 nm), and three reads per well (PMT low). Data were analyzed by performing background correction through subtracting blank medium readings (without cells) from all samples and then normalizing each sample to medium treated cells (control treatment, 100%) as percentage of control.
# Results are expressed as means ± S.D. from the indicated number of experiments. For YO-PRO-1 dye uptake and intracellular calcium experiments, each independent experiment used triplicate wells, and the means of the replicates were collated and plotted. Technical replicates were used to ensure reliability of fluorescence values. Cell viability data were normalized to the vehicle control for each experiment after background correction had been performed. […] These values were calculated from the collated data for each compound from three independent experiments. Statistical differences were determined by analysis of the data by one-way ANOVA followed by Dunnett’s multiple comparison test or Sidak’s multiple comparison test using GraphPad Prism version 7. […]
# human P2X7 [1] = target: T1, human P2X7 (Homo sapiens, UniProt Q99572); assay: YO-PRO-1 dye uptake assay in HEK-hP2X7 cells; type: cell-based; conditions: for Effect of AZ10606120 pretreatment on response to ATP + glycoside (P2X7 dependence): 10 µM AZ10606120 pretreatment
# T1 construct: expressed in transfected cells
# T1 sequence (Q99572 1-595): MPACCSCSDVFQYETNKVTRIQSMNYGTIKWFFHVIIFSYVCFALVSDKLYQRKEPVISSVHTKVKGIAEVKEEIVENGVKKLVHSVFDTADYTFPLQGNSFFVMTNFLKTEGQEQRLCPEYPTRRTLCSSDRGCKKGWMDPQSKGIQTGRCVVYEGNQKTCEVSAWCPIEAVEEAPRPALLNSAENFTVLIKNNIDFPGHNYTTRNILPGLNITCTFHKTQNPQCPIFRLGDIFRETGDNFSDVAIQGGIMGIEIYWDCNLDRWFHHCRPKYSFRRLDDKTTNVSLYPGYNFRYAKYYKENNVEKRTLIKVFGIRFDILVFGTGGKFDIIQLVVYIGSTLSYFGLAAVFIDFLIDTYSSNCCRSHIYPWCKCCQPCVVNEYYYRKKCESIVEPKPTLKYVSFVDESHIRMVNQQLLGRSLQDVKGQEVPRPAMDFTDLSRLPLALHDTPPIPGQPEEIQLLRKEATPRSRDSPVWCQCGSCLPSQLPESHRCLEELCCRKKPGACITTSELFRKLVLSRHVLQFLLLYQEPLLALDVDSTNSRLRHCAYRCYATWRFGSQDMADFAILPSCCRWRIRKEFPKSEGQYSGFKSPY
# Experimental: ATP-induced dye uptake experiments were performed as described previously ([Bidula et al., 2019b]). Briefly, HEK-hP2X7 cells were plated at 2 × 10^4 cells per well (100 μl per well) in complete medium and left overnight to attach to poly-D-lysine–coated 96-well plates. YO-PRO-1 iodide was prepared in a low divalent buffered solution ([…], 2 mM KCl, 13 mM D-glucose, 10 mM HEPES, 0.2 mM CaCl2 pH 7.3) to a final concentration of 2 μM. Medium was removed from the plate using a manual multichannel pipette and YO-PRO-1 containing buffer applied to wells (180 μl per well). […] A Flexstation 3 plate reader (Molecular Devices, Sunnyvale, CA) was used to record YO-PRO-1 fluorescence in HEK-hP2X7 for 300 seconds after the addition of ATP (at 10× final concentration) with/without ginsenoside compounds or vehicle (DMSO). Plates were allowed to warm up to 37°C for 10 minutes before initiating the recording. Baseline recordings were made for 40 seconds before compound addition using the Flexstation 3 fluidics system. YO-PRO-1 fluorescence was measured at 520 nm after excitation at 490 nm (auto cutoff at 495 nm), and the sample interval was 3.5 seconds. Flexstation settings were photomultiplier tube (PMT) medium, six reads per well, pipette height 170, and a rate of injection of 3. Data were acquired using Softmax Pro version 5.4 (Molecular Devices). To analyze the data, area under the dye uptake curve was calculated in Softmax Pro version 5 using zero baseline data with a lag time of 50 seconds (50–300 seconds).
# (§2) Results are expressed as means ± S.D. from the indicated number of experiments. For YO-PRO-1 dye uptake and intracellular calcium experiments, each independent experiment used triplicate wells, and the means of the replicates were collated and plotted. Technical replicates were used to ensure reliability of fluorescence values. […] Dose-response curves were plotted by a nonlinear regression fit with variable slope using GraphPad Prism software version 7. Half-maximal responses are expressed as EC50 values with 95% confidence intervals. These values were calculated from the collated data for each compound from three independent experiments. Statistical differences were determined by analysis of the data by one-way ANOVA followed by Dunnett’s multiple comparison test or Sidak’s multiple comparison test using GraphPad Prism version 7. P < 0.05 was the accepted minimum level of significance.
# HEK-hP2X7 cells = assay: Cell viability assay (resazurin/Alamar blue) in HEK-hP2X7 cells; type: cell-based, human; conditions: 24 hours
# Experimental: as §1
# Results are expressed as means ± S.D. from the indicated number of experiments. For YO-PRO-1 dye uptake and intracellular calcium experiments, each independent experiment used triplicate wells, and the means of the replicates were collated and plotted. Technical replicates were used to ensure reliability of fluorescence values. Cell viability data were normalized to the vehicle control for each experiment after background correction had been performed. Dose-response curves were plotted by a nonlinear regression fit with variable slope using GraphPad Prism software version 7. Half-maximal responses are expressed as EC50 values with 95% confidence intervals. These values were calculated from the collated data for each compound from three independent experiments. Statistical differences were determined by analysis of the data by one-way ANOVA followed by Dunnett’s multiple comparison test or Sidak’s multiple comparison test using GraphPad Prism version 7. P < 0.05 was the accepted minimum level of significance.
# [2] = target: T2, endogenous P2X7 in THP-1 cells (Homo sapiens, UniProt Q99572); assay: Fura-2 calcium measurements in THP-1 monocytes; type: cell-based; conditions: 500 µM ATP co-applied with 10 µM glycoside
# T2 sequence (Q99572 1-394 limits assumed): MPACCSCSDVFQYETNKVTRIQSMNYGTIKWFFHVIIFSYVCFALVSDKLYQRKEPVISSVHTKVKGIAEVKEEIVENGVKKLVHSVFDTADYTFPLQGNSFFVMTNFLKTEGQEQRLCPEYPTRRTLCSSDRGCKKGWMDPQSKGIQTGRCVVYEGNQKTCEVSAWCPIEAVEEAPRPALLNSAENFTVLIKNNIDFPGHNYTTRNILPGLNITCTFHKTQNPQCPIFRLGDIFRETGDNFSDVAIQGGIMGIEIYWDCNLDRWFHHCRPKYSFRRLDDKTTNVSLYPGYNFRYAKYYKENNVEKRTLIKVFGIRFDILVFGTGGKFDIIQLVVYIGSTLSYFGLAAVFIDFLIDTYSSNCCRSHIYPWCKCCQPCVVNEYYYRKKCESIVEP
# Experimental: THP-1 cells were pelleted by centrifugation (300g, 5 minute), washed, and resuspended in Hanks’ balanced salt solution buffer containing 2 μM fura-2 AM (HelloBio) and 250 μM (±)-sulfinpyrazone. Cells were loaded for 1 hour in a waterbath at 37°C while shielded from light with foil. Loaded cells were washed once with 5 ml Hanks’ balanced salt solution to remove excess fura-2 AM dye. THP-1 cells were then resuspended, counted, and plated at 2 × 10^5 cells per well in a standard clear 96-well plate (NUNC 167008; Thermo Scientific) in low divalent assay buffer without Mg^2+ (145 mM NaCl, 2 mM KCl and 2 mM CaCl2, 13 mM glucose, 10 mM HEPES, pH 7.3) containing 250 μM (±)-sulfinpyrazone. The 10× concentration of agonist (ATP) was prepared in the same assay buffer. ATP was injected automatically into wells at 30 seconds in a Flexstation 3 microplate reader. Ratiometric data were acquired using 340 and 380 nm for excitation wavelengths, 520 nm as the emission wavelength, and six reads per well (PMT medium). Area under the curve was calculated using standard zero baseline normalization with a lag time 0–300 seconds using SoftMax Pro version 5.4 software.
# as §2
# human P2X7 [3] = target: T1, human P2X7; parameters: method as in Helliwell et al., 2015; conditions: ref Helliwell et al., 2015; cited from earlier work
# [4] = system: nontransfected HEK-293 cells; assay: YO-PRO-1 dye uptake in parental nontransfected HEK-293 cells; type: cell-based, human; conditions: drug alone
smiles,measurement,setting,value
"Nc1ncnc2c1ncn2[C@@H]1O[C@H](COP(=O)(O)OP(=O)(O)OP(=O)(O)O)[C@@H](O)[C@H]1O [ATP, reference compound]",Cell viability after ATP,THP-1 cells; 24 hours,73.3% ± 14.4%
same,EC50,"human P2X7 [1]; average, n = 5 experiments, HEK-hP2X7, read-out: EC50 for ATP + vehicle (DMSO)",219 µM
CC(C)=CCCC(C)(OC1OC(CO)C(O)C(O)C1O)C1CCC2(C)C1C(O)CC1C3(C)CCC(O)C(C)(C)C3CCC12C (stereo not shown) [Ginsenoside-CK],Cell viability in combination with ATP,HEK-hP2X7 cells,very effective at enhancing cell death
same,Enhancement of ATP-induced cell death,THP-1 cells; 24 hours,could significantly enhance this ATP-induced cell death
same,Effect on ATP-induced calcium response,[2],increased the peak response and the sustained elevation in [Ca^2+]i
same,PAM activity at human P2X7,human P2X7 [3],highest activity
same,Effect of AZ10606120 pretreatment on response to ATP + glycoside (P2X7 dependence),human P2X7 [1],abolished
same,PAM effect on ATP dose-response curve,"human P2X7 [1]; 10 µM glycoside, HEK-hP2X7, result in words",mixed type I/II effects
same,Maximum response (fold increase),"human P2X7 [1]; maximum response defined at 1 mM ATP, 10 µM glycoside",2.4–4.4 fold
"C[C@H]1O[C@@H](O[C@H]2CC[C@@]3(C)[C@@H](CC[C@]4(C)[C@@H]3C=C[C@]35OC[C@@]6(CCC(C)(C)C[C@H]63)[C@@H](O)C[C@]54C)[C@]2(C)CO)[C@H](O)[C@@H](O[C@@H]2O[C@H](CO)[C@@H](O)[C@H](O)[C@H]2O)[C@H]1O [Saikosaponin A, saikosaponin A]",YO-PRO-1 uptake in nontransfected HEK-293 cells (no P2X7),[4],could induce YO-PRO-1 uptake
same,Effect of AZ10606120 pretreatment on response to ATP + glycoside (P2X7 dependence),human P2X7 [1],unaffected by AZ10606120 pretreatment
same,ATP-induced YO-PRO-1 response in fixed-concentration screen,"human P2X7 [1]; 200 µM ATP, 10 µM glycoside, compared with ATP + DMSO",large increase
same,Toxic effect on cells,human P2X7 [1]; YO-PRO-1 uptake without ATP or without P2X7,toxic effect on the cells
same,YO-PRO-1 uptake in HEK-hP2X7 cells in the absence of ATP,human P2X7 [1]; drug alone,could induce YO-PRO-1 uptake
"Cl.Cl.O=C(CC12CC3CC(CC(C3)C1)C2)Nc1cccc2nc(NCCNCCO)ccc12 [AZ10606120, reference compound]",Antagonist effect on loss of viability by ATP + ginsenoside-F2 or 20(S)-Rg3,HEK-hP2X7 cells; AZ10606120 pretreatment,prevented
same,Antagonist effect on ATP-induced loss of viability,THP-1 cells,lack of effect
